Results reported in PubChem BioAssay AID330 (DTP/NCI, 2004).
Several values for one entry are separate records, joined by “and”; a condition that tells them apart may be missing. Equal values may be shown once. Inconclusive results and toxic doses are left out.

Tested on: P388 leukemia ip, CD2F1 mice, survival T/C
Test: NCI In Vivo Anticancer Drug Screen. Data for tumor model P388 Leukemia (intraperitoneal) in CD2F1 (CDF1) mice
Conditions: endpoint: median survival time, higher = longer survival
In short: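 Mice carrying the transplanted tumor received test compound or vehicle. Survival was recorded in each group, and the value is the treated-group measurement divided by that of the vehicle-treated control group.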

[1] = dose: 50.0 mg/kg/injection, schedule: Q01DX005 (ip), vehicle: Klucel (hydroxypropylcellulose) (HPC)
[2] = dose: 100.0 mg/kg/injection, schedule: Q01DX005 (ip), vehicle: Klucel (hydroxypropylcellulose) (HPC)
[3] = dose: 200.0 mg/kg/injection, schedule: Q01DX005 (ip), vehicle: Klucel (hydroxypropylcellulose) (HPC)
[4] = dose: 25.0 mg/kg/injection, schedule: Q04DX003 (ip), vehicle: saline
[5] = dose: 50.0 mg/kg/injection, schedule: Q04DX003 (ip), vehicle: saline
[6] = dose: 100.0 mg/kg/injection, schedule: Q04DX003 (ip), vehicle: saline
[7] = dose: 60.0 mg/kg/injection, schedule: Q01DX005 (ip), vehicle: saline with Tween-80
[8] = dose: 120.0 mg/kg/injection, schedule: Q01DX005 (ip), vehicle: saline with Tween-80
[9] = dose: 240.0 mg/kg/injection, schedule: Q01DX005 (ip), vehicle: saline with Tween-80
[10] = dose: 50.0 mg/kg/injection, schedule: Q01DX009 (ip), vehicle: Klucel (hydroxypropylcellulose) (HPC)
[11] = dose: 100.0 mg/kg/injection, schedule: Q01DX009 (ip), vehicle: Klucel (hydroxypropylcellulose) (HPC)
[12] = dose: 200.0 mg/kg/injection, schedule: Q01DX009 (ip), vehicle: Klucel (hydroxypropylcellulose) (HPC)

What does the source list for `COC(=O)c1csccc1=O`?
T/C [1]: 112 % of control; T/C [2]: 97 % of control; T/C [3]: 95 % of control

What does the source list for `c1ccc2c(NCCCN3CCN(CCCNc4c5ccccc5nc5ccccc45)CC3)c3ccccc3nc2c1`?
T/C (dose: 0.93 mg/kg/injection, schedule: Q01DX005 (ip), vehicle: Klucel (hydroxypropylcellulose) (HPC)): 110 % of control; T/C (dose: 1.88 mg/kg/injection, schedule: Q01DX005 (ip), vehicle: Klucel (hydroxypropylcellulose) (HPC)): 104 % of control

How did the T/C (dose: 25.0 mg/kg/injection, schedule: Q04DX003 (ip), vehicle: saline with Tween-80) turn out when `CCCCCCCCCCCCCC(C)NCc1ccccc1` (stereo not given) was run?
Its T/C is 96 % of control.

What about the T/C (dose: 50.0 mg/kg/injection, schedule: Q04DX003 (ip), vehicle: saline with Tween-80) of the same compound?
The T/C was 100 % of control.

Which results are given for `COc1ccc(C2CC(=O)N(CC(=O)O)C(=O)C2)cc1`?
T/C (dose: 100.0 mg/kg/injection, schedule: Q04DX003 (ip), vehicle: suspension in saline): 103 % of control; T/C (dose: 200.0 mg/kg/injection, schedule: Q04DX003 (ip), vehicle: suspension in saline): 100 % of control; T/C (dose: 400.0 mg/kg/injection, schedule: Q04DX003 (ip), vehicle: suspension in saline): 99 % of control

How did the T/C [4] turn out when `CC1(C)COC(=O)C1=C(C#N)C#N` was run?
Its T/C is 100 % of control.

What about the T/C [5] of the same compound?
The T/C was 98 % of control.

And the T/C [6]?
Its T/C is 102 % of control.

`O=C(OCc1ccccc1)n1nnc2ccccc21` was tested. Which T/C [7] did it give?
The T/C was 113 % of control.

And the T/C [8]?
Its T/C is 105 % of control.

And the T/C [9]?
The T/C was 111 % of control.

`Cc1cccc(OCC(O)CNC(C)(C)C)c1C` (stereo not given) was tested. Which T/C (dose: 12.5 mg/kg/injection, schedule: Q01DX009 (ip), vehicle: saline with Tween-80) did it give?
Its T/C is 99 % of control.

And the T/C (dose: 25.0 mg/kg/injection, schedule: Q01DX009 (ip), vehicle: saline with Tween-80)?
The T/C was 98 % of control.

And the T/C (dose: 50.0 mg/kg/injection, schedule: Q01DX009 (ip), vehicle: saline with Tween-80)?
Its T/C is 99 % of control.

And the T/C (dose: 100.0 mg/kg/injection, schedule: Q01DX009 (ip), vehicle: saline with Tween-80)?
The T/C was 99 % of control.

Which results are given for `O=C1CNC(=O)C12C(=O)CNC2=O`?
T/C (dose: 100.0 mg/kg/injection, schedule: Q04DX002 (ip), vehicle: saline with Tween-80): 98 % of control; T/C (dose: 200.0 mg/kg/injection, schedule: Q04DX002 (ip), vehicle: saline with Tween-80): 96 % of control; T/C (dose: 400.0 mg/kg/injection, schedule: Q04DX002 (ip), vehicle: saline with Tween-80): 98 % of control

How did the T/C [4] turn out when `FC(F)(F)C(Cl)Br` (stereo not given) was run?
The T/C was 109 % of control.

What about the T/C [5] of the same compound?
Its T/C is 109 % of control.

What about the T/C (dose: 100.0 mg/kg/injection, schedule: Q01DX009 (ip), vehicle: saline) of the same compound?
Its T/C is 100 % of control.

What about the T/C [6] of the same compound?
Its T/C is 109 % of control.

And the T/C (dose: 200.0 mg/kg/injection, schedule: Q01DX009 (ip), vehicle: saline)?
The T/C was 90 % of control.

What about the T/C (dose: 400.0 mg/kg/injection, schedule: Q01DX009 (ip), vehicle: saline) of the same compound?
Its T/C is 90 % of control.

Which results are given for `CCOC(=O)N1CCNCC1`?
T/C [6]: 108 % of control; T/C (dose: 200.0 mg/kg/injection, schedule: Q04DX003 (ip), vehicle: saline): 108 % of control

Which results are given for `COCCOC(=O)CCn1cc(F)c(=O)[nH]c1=O`?
T/C (dose: 30.0 mg/kg/injection, schedule: Q04DX002 (ip), vehicle: saline): 92 % of control; T/C (dose: 60.0 mg/kg/injection, schedule: Q04DX002 (ip), vehicle: saline): 108 % of control; T/C (dose: 120.0 mg/kg/injection, schedule: Q04DX002 (ip), vehicle: saline): 96 % of control; T/C (dose: 200.0 mg/kg/injection, schedule: Q04DX002 (ip), vehicle: saline): 91 % of control and 123 % of control; T/C (dose: 240.0 mg/kg/injection, schedule: Q04DX002 (ip), vehicle: saline): 96 % of control; T/C (dose: 400.0 mg/kg/injection, schedule: Q04DX002 (ip), vehicle: saline): 93 % of control; T/C (dose: 600.0 mg/kg/injection, schedule: Q04DX002 (ip), vehicle: saline): 91 % of control; T/C (dose: 800.0 mg/kg/injection, schedule: Q04DX002 (ip), vehicle: saline): 118 % of control; T/C (dose: 1600.0 mg/kg/injection, schedule: Q04DX002 (ip), vehicle: saline): 155 % of control

For `CC1(C)CC(OP(=S)(N2CC2)N2CC2)CC(C)(C)N1O`, which T/C (dose: 100.0 mg/kg/injection, schedule: Q01DX001 (ip), vehicle: Klucel (hydroxypropylcellulose) (HPC)) is on record?
The T/C was 160 % of control.

What about the T/C (dose: 400.0 mg/kg/injection, schedule: Q01DX001 (ip), vehicle: Klucel (hydroxypropylcellulose) (HPC)) of the same compound?
The T/C was 187 % of control.

Which results are given for `CN(C)c1cc[n+](-c2c([O-])c3ccccc3n(-c3ccccc3)c2=O)cc1`?
T/C [1]: 107 % of control; T/C [2]: 104 % of control; T/C [3]: 97 % of control

`COC(=O)c1ccc(SCC/C(CN2C(=O)c3ccccc3C2=O)=N\O)cc1` was tested. Which T/C [10] did it give?
Its T/C is 95 % of control.

And the T/C [11]?
Its T/C is 99 % of control.

And the T/C [12]?
Its T/C is 88 % of control.

`CC(=O)Nc1ccc(/C=N/NC(=O)CC2CCCCC2)cc1` was tested. Which T/C [7] did it give?
Its T/C is 96 % of control.

And the T/C [8]?
The T/C was 100 % of control.

What about the T/C [9] of the same compound?
The T/C was 91 % of control.

For `CC(=O)OC1CC(C)OC(OC2CCC3(C=O)C4C(O)C(=O)[C@]5(C)C(c6ccc(=O)oc6)CC[C@]5(O)C4CC[C@]3(O)C2)C1OC(C)=O` (stereo not given in full), which T/C (dose: 0.18 mg/kg/injection, schedule: Q01DX009 (ip), vehicle: distilled water + Tween-80 + alcohol) is on record?
Its T/C is 90 % of control.

And the T/C (dose: 0.35 mg/kg/injection, schedule: Q01DX009 (ip), vehicle: distilled water + Tween-80 + alcohol)?
Its T/C is 107 % of control.

What about the T/C (dose: 0.71 mg/kg/injection, schedule: Q01DX009 (ip), vehicle: distilled water + Tween-80 + alcohol) of the same compound?
Its T/C is 100 % of control.

And the T/C (dose: 1.42 mg/kg/injection, schedule: Q01DX009 (ip), vehicle: distilled water + Tween-80 + alcohol)?
Its T/C is 109 % of control.

What about the T/C (dose: 2.84 mg/kg/injection, schedule: Q01DX009 (ip), vehicle: distilled water + Tween-80 + alcohol) of the same compound?
Its T/C is 100 % of control.

Which results are given for `C=C(C(C)=O)c1ccccc1`?
T/C (dose: 25.0 mg/kg/injection, schedule: Q01DX009 (ip), vehicle: Klucel (hydroxypropylcellulose) (HPC)): 100 % of control; T/C [10]: 98 % of control; T/C [11]: 100 % of control; T/C [12]: 107 % of control; T/C (dose: 400.0 mg/kg/injection, schedule: Q01DX009 (ip), vehicle: Klucel (hydroxypropylcellulose) (HPC)): 107 % of control

For `CCCC(C)N(CC(=O)Nc1ccc(S(N)(=O)=O)cc1)C(C)=O` (stereo not given), which T/C [10] is on record?
The T/C was 100 % of control.

And the T/C [11]?
The T/C was 107 % of control.

And the T/C [12]?
The T/C was 109 % of control.

For `CCCCOC(=O)c1c2nc3c(C(=O)OCCCC)ccc(C)c3oc-2c(C)c(=O)c1NC(C)=O`, which T/C (dose: 100.0 mg/kg/injection, schedule: Q04DX003 (ip), vehicle: Klucel (hydroxypropylcellulose) (HPC)) is on record?
The T/C was 87 % of control.

What about the T/C (dose: 200.0 mg/kg/injection, schedule: Q04DX003 (ip), vehicle: Klucel (hydroxypropylcellulose) (HPC)) of the same compound?
The T/C was 90 % of control.

And the T/C (dose: 400.0 mg/kg/injection, schedule: Q04DX003 (ip), vehicle: Klucel (hydroxypropylcellulose) (HPC))?
The T/C was 89 % of control.

Which T/C [10] does the source give for `Cc1ccc2nc(N)nnc2c1` here?
The T/C was 104 % of control.

What about the T/C [11] of the same compound?
The T/C was 100 % of control.

Which results are given for `O=C(CCc1ccccc1C(=O)O)c1ccccc1O`?
T/C (dose: 50.0 mg/kg/injection, schedule: Q01DX005 (ip), vehicle: saline with Tween-80): 94 % of control; T/C (dose: 100.0 mg/kg/injection, schedule: Q01DX005 (ip), vehicle: saline with Tween-80): 105 % of control; T/C (dose: 200.0 mg/kg/injection, schedule: Q01DX005 (ip), vehicle: saline with Tween-80): 93 % of control

With `O=C1c2ccccc2C(=O)N1CCc1ccccc1Br` as the compound, how does the T/C [1] read?
The T/C was 104 % of control.

And the T/C [2]?
The T/C was 96 % of control.

How did the T/C (dose: 100.0 mg/kg/injection, schedule: Q01DX001 (ip), vehicle: saline with Tween-80) turn out when `CCCOC(=O)Nc1ccc2c(c1)c1c3[nH]c(=O)c4cccn4c3ccc1n2CC` was run?
The T/C was 94 % of control.

What about the T/C (dose: 200.0 mg/kg/injection, schedule: Q01DX001 (ip), vehicle: saline with Tween-80) of the same compound?
The T/C was 94 % of control.

For `C=CC(=NC(C)C)NC(C)C`, which T/C (dose: 1.56 mg/kg/injection, schedule: Q01DX009 (ip), vehicle: saline) is on record?
The T/C was 100 % of control.

What about the T/C (dose: 3.13 mg/kg/injection, schedule: Q01DX009 (ip), vehicle: saline) of the same compound?
Its T/C is 101 % of control.

How did the T/C [1] turn out when `CCOC(=O)/C(C#N)=N/Nc1ccc(S(=O)(=O)NC(C)=O)cc1` was run?
Its T/C is 96 % of control.

What about the T/C [2] of the same compound?
Its T/C is 92 % of control.

And the T/C [3]?
The T/C was 96 % of control.

What does the source list for `Cc1nc(N)[nH]c(=O)c1CCc1ccccc1`?
T/C (dose: 60.0 mg/kg/injection, schedule: Q01DX005 (ip), vehicle: saline): 97 % of control; T/C (dose: 120.0 mg/kg/injection, schedule: Q01DX005 (ip), vehicle: saline): 99 % of control; T/C (dose: 240.0 mg/kg/injection, schedule: Q01DX005 (ip), vehicle: saline): 98 % of control

`CC(=O)NC(C)CC1=CC(=O)C(C)=CC1=O` (stereo not given) was tested. Which T/C (dose: 25.0 mg/kg/injection, schedule: Q01DX001 (ip), vehicle: Klucel (hydroxypropylcellulose) (HPC)) did it give?
Its T/C is 95 % of control.
